What was measured:
E. faecalis ATCC 29212 [1] = assay: MIC by CLSI standard method (Test Example 1); type: cell-based; details: Enterococcus faecalis, ATCC29212, cation-adjusted Mueller Hinton Broth, about 5×10^5 CFU/mL
Method: (§1) Minimal inhibitory concentration (MIC: μg/ml) against different strains of bacteria was assayed according to the standard method recommended by CLSI (clinical and laboratory standards institute). Samples were prepared from test compound solution in DMSO (1280 μg/mL) by two fold (serial) dilution with DMSO. The sample was added to bacteria suspension at the concentration of 5%, and MIC was determined. Mueller Hinton Broth, which has been adjusted for cation concentration, was used for culture media in this test. The inoculation concentration was about 5×10^5 CFU/mL.

S. aureus ATCC 700787 = assay: MIC by CLSI standard method (Test Example 1); type: cell-based; details: Staphylococcus aureus, ATCC700787, cation-adjusted Mueller Hinton Broth, about 5×10^5 CFU/mL
Method: as §1

E. faecalis SR7914 [2] = assay: MIC by CLSI standard method (Test Example 1); type: cell-based; details: Enterococcus faecalis, cation-adjusted Mueller Hinton Broth, about 5×10^5 CFU/mL
Method: as §1

E. faecium SR7917 = assay: MIC by CLSI standard method (Test Example 1); type: cell-based; details: Enterococcus faecium, cation-adjusted Mueller Hinton Broth, about 5×10^5 CFU/mL
Method: as §1

S. aureus FDA 209P [3] = assay: MIC by CLSI standard method (Test Example 1); type: cell-based; details: Staphylococcus aureus, FDA209P, cation-adjusted Mueller Hinton Broth, about 5×10^5 CFU/mL
Method: as §1

S. aureus smith = assay: MIC by CLSI standard method (Test Example 1); type: cell-based; details: Staphylococcus aureus, cation-adjusted Mueller Hinton Broth, about 5×10^5 CFU/mL
Method: as §1

E. faecalis ATCC 29212 [4] = assay: MIC of quinolone compounds (Test Example 2); type: cell-based; details: Enterococcus faecalis, ATCC29212, procedure of Test Example 1
Method: as §1
(§2) The quinolone compounds of the invention were tested for antimicrobial activity according to the procedure in Test Example 1.

S. aureus SR3637 = assay: MIC of quinolone compounds (Test Example 2); type: cell-based; details: Staphylococcus aureus, procedure of Test Example 1
Method: as §1, §2

E. faecalis SR7914 [5] = assay: MIC of quinolone compounds (Test Example 2); type: cell-based; details: Enterococcus faecalis, procedure of Test Example 1
Method: as §1, §2

S. aureus FDA 209P [6] = assay: MIC of quinolone compounds (Test Example 2); type: cell-based; details: Staphylococcus aureus, FDA209P, procedure of Test Example 1
Method: as §1, §2

MIC (E. faecalis ATCC 29212 [1])	MIC (S. aureus ATCC 700787)	MIC (E. faecalis SR7914 [2])	MIC (E. faecium SR7917)	MIC (S. aureus FDA 209P [3])	MIC (S. aureus smith)	MIC (E. faecalis ATCC 29212 [4])	MIC (S. aureus SR3637)	MIC (E. faecalis SR7914 [5])	MIC (S. aureus FDA 209P [6])	melting point	Compound
≤ 1 µg/mL	≤ 1 µg/mL	≤ 1 µg/mL	≤ 1 µg/mL	≤ 1 µg/mL	≤ 1 µg/mL						O=C(NC[C@H]1CN(c2cc(F)c(N3CCNN(C(=O)Nc4ccncc4)CC3)c(F)c2)C(=O)O1)C(F)F [Example 86]
≤ 1 µg/mL	≤ 1 µg/mL	≤ 1 µg/mL	≤ 1 µg/mL	≤ 1 µg/mL	≤ 1 µg/mL						CC(=O)NC[C@H]1CN(c2cc(F)c(N3CCNN(C(=O)Nc4ccncc4)CC3)c(F)c2)C(=O)O1 [Example 85]
≤ 1 µg/mL	≤ 1 µg/mL	≤ 1 µg/mL	≤ 1 µg/mL	≤ 1 µg/mL	≤ 1 µg/mL						CC(=O)NC[C@H]1CN(c2cc(F)c(N3CCNN(C(=O)CO)CC3)c(F)c2)C(=O)O1 [Example 91]

Continued, molecule first:

Compound	MIC (E. faecalis ATCC 29212 [1])	MIC (S. aureus ATCC 700787)	MIC (E. faecalis SR7914 [2])	MIC (E. faecium SR7917)	MIC (S. aureus FDA 209P [3])	MIC (S. aureus smith)	MIC (E. faecalis ATCC 29212 [4])	MIC (S. aureus SR3637)	MIC (E. faecalis SR7914 [5])	MIC (S. aureus FDA 209P [6])	melting point
O=C(NC[C@H]1CN(c2cc(F)c(N3CCn4c(=O)c5cccnc5n4CC3)c(F)c2)C(=O)O1)C(F)F [Example 82]	≤ 1 µg/mL	≤ 1 µg/mL	≤ 1 µg/mL	≤ 1 µg/mL	≤ 1 µg/mL	≤ 1 µg/mL					
CC(=O)NC[C@H]1CN(c2cc(F)c(N3CCNN(C(=O)Nc4nccs4)CC3)c(F)c2)C(=O)O1 [Example 83]	≤ 1 µg/mL	≤ 1 µg/mL	≤ 1 µg/mL	≤ 1 µg/mL	≤ 1 µg/mL	≤ 1 µg/mL					
O=C(NC[C@H]1CN(c2cc(F)c(N3CCNN(C(=O)Nc4nccs4)CC3)c(F)c2)C(=O)O1)C(F)F [Example 84]	≤ 1 µg/mL	≤ 1 µg/mL	≤ 1 µg/mL	≤ 1 µg/mL	≤ 1 µg/mL	≤ 1 µg/mL					
CC(=O)NC[C@H]1CN(c2cc(F)c(N3CCn4c(=O)c5cccnc5n4CC3)c(F)c2)C(=O)O1 [Example 81]	≤ 1 µg/mL	≤ 1 µg/mL	≤ 1 µg/mL	≤ 1 µg/mL	≤ 1 µg/mL	≤ 1 µg/mL					
COc1c(N2CCNOCC2)c(F)cc2c(=O)c(C(=O)O)cn(C3CC3)c12 [Compound (71)]							≤ 1 µg/mL	≤ 1 µg/mL	≤ 1 µg/mL	≤ 1 µg/mL	222 to 224 °C
